Data on 21 compounds can be found in patent US9540366B2, “Ring-fused heterocyclic compound” (Kyowa Hakko Kirin Co., Ltd., priority 2012, dated 2017).

In one experiment the target is T1, human Cav3.2 T-type Ca2+ channel (Homo sapiens, UniProt O95180).
T1 construct: expressed in transfected cells; host or cells: KJMGER8 cells (Namalwa cell-derived cell line)
T1 sequence (O95180 whole entry): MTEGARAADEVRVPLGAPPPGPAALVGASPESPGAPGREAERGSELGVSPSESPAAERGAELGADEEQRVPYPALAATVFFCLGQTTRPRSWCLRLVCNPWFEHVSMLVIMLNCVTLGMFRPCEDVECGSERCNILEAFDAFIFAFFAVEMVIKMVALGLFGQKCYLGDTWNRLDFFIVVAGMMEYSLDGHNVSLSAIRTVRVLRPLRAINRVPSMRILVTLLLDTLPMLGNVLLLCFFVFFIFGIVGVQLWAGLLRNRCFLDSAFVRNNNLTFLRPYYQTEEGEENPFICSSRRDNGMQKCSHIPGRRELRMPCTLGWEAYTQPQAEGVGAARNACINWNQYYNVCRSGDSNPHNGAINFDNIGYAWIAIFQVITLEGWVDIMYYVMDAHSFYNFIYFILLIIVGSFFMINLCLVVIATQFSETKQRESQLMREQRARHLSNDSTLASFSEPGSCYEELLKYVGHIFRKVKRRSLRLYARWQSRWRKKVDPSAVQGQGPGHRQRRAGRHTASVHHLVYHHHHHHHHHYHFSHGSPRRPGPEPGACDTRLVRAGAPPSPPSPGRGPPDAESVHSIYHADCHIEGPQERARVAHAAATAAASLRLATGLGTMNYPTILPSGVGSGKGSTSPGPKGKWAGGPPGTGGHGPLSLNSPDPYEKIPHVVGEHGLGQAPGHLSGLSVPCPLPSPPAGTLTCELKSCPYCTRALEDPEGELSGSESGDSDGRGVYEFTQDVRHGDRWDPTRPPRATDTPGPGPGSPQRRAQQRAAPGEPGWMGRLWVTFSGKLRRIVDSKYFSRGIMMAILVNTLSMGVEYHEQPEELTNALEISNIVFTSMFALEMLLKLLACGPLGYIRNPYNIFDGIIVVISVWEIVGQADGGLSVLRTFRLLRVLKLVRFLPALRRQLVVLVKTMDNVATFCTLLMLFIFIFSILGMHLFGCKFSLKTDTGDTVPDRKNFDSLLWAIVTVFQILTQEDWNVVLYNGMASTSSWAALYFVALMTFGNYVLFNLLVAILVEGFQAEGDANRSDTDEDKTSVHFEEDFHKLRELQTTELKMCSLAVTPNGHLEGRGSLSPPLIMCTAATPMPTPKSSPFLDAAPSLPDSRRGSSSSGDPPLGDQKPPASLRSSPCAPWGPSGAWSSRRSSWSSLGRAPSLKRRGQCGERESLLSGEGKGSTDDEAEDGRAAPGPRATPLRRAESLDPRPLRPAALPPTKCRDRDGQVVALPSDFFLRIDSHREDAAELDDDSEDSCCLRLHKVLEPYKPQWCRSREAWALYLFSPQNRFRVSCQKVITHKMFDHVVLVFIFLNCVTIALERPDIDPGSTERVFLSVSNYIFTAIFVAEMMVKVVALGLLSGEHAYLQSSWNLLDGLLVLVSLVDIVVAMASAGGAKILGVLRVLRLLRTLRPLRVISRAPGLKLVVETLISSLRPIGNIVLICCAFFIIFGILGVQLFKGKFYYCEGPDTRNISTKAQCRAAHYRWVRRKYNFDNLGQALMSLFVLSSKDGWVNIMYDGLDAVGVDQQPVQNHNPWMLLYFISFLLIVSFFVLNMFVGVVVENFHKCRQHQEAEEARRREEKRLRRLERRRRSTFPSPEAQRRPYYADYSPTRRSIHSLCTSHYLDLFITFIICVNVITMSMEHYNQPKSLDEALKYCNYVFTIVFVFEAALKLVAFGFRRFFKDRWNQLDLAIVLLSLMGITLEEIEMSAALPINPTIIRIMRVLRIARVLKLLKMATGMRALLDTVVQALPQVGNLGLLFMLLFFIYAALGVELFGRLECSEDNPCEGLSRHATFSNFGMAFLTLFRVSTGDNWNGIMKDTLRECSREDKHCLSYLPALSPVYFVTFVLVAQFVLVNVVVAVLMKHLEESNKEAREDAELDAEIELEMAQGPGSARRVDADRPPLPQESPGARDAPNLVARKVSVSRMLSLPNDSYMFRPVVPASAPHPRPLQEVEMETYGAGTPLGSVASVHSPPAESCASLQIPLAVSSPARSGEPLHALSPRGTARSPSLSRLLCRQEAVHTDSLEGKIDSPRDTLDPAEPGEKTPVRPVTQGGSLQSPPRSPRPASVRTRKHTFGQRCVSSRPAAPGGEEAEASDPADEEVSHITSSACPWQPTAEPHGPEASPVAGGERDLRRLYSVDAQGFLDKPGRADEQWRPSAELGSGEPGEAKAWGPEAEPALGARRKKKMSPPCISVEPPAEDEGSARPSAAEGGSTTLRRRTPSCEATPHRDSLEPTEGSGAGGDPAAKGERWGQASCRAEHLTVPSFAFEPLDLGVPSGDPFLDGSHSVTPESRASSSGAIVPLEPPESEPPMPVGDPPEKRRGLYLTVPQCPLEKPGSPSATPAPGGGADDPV
Kind of experiment: Inhibitory effect for intracellular calcium response via Cav3.2 T-type Ca2+ channels (FLIPR Calcium 3 Assay Kit).
Settings: not given
Format: cell-based.
A word on the IC50: it is the concentration that gives 50% inhibition. On to `CCOC(=O)C(C)NC(=O)c1cc(Cl)n2c(CC3CCC(F)(F)CC3)c(C(F)(F)F)nc2c1` (stereo not drawn) [Compound 123, Ethyl 2-{5-chloro-3-[(4,4-difluorocyclohexyl)methyl]-2-(trifluoromethyl)imidazo[1,2-a]pyridine-7-carboxamide}propanoate], for which the half-maximal inhibitory concentration (IC50) was no more than 0.1 µM. On the same count and under the same terms, to `CCOC(=O)C(=O)CNC(=O)c1cc(C)n2c(CC3CCC(F)(F)CC3)c(C(F)(F)F)nc2c1` [Compound 124, Ethyl 3-{3-[(4,4-difluorocyclohexyl)methyl]-5-methyl-2-(trifluoromethyl)imidazo[1,2-a]pyridine-7-carboxamide}-2-oxopropanoate] belongs no more than 0.1 µM. With `O=C(NCC1(O)CC1)c1cc(Cl)n2c(CC3CCC(F)(F)CC3)c(C(F)(F)F)nc2c1` [Compound 125, 5-Chloro-3-[(4,4-difluorocyclohexyl)methyl]-N-[(1-hydroxycyclopropyl)methyl]-2-(trifluoromethyl)imidazo[1,2-a]pyridine-7-carboxamide], the IC50 was no more than 0.1 µM. As for `CC(F)(F)c1nc2cc(C(=O)NC3CCC4(CC3)COC4)c(Cl)cn2c1CC1CCC(F)(F)CC1` [Compound 127, 6-Chloro-3-[(4,4-difluorocyclohexyl)methyl]-2-(1,1-difluoroethyl)-N-(2-oxaspiro[3.5]nonan-7-yl)imidazo[1,2-a]pyridine-7-carboxamide], the IC50 was no more than 0.1 µM. The same measure, in the same setting: to `CC(NC(=O)c1cc(Cl)n2c(CC3CCC(F)(F)CC3)c(C(F)(F)F)nc2c1)C(=O)NC1CCOCC1` (stereo not drawn) [Compound 128, 5-Chloro-3-[(4,4-difluorocyclohexyl)methyl]-N-[1-oxo-1-(tetrahydro-2H-pyran-4-ylamino)propan-2-yl]-2-(trifluoromethyl)imidazo[1,2-a]pyridine-7-carboxamide] belongs no more than 0.1 µM; to `O=C(CNC(=O)c1cc(Cl)n2c(CC3CCC(F)(F)CC3)c(C(F)(F)F)nc2c1)NC1CCOC1` (stereo not drawn) [Compound 131, 5-Chloro-3-[(4,4-difluorocyclohexyl)methyl]-N-[2-oxo-2-(tetrahydrofuran-3-ylamino)ethyl]-2-(trifluoromethyl)imidazo[1,2-a]pyridine-7-carboxamide], no more than 0.1 µM; to `COc1c(C(=O)NC2CCOCC2)cc(C)n2c(CC3CCC(F)(F)CC3)c(C(F)(F)F)nc12` [Compound 133, 3-[(4,4-Difluorocyclohexyl)methyl]-8-methoxy-5-methyl-N-(tetrahydro-2H-pyran-4-yl)-2-(trifluoromethyl)imidazo[1,2-a]pyridine-7-carboxamide], no more than 0.1 µM. Turning to `CCOC(=O)C1(NC(=O)c2cc(Cl)n3c(CC4CCC(F)(F)CC4)c(C(F)(F)F)nc3c2)CC1` [Compound 135, Ethyl 1-{5-chloro-3-[(4,4-difluorocyclohexyl)methyl]-2-(trifluoromethyl)imidazo[1,2-a]pyridine-7-carboxamide}cyclopropanecarboxylate], the IC50 is no more than 0.1 µM. Same read-out and setting: for `Cc1cc(C(=O)NC2CC3(COC3)C2)cc2nc(C(C)(F)F)c(CC3CCC(F)(F)CC3)n12` [Compound 136, 3-[(4,4-Difluorocyclohexyl)methyl]-2-(1,1-difluoroethyl)-5-methyl-N-(2-oxaspiro[3.3]heptan-6-yl)imidazo[1,2-a]pyridine-7-carboxamide] the value was no more than 0.1 µM; for `Cc1cc(C(=O)NC2CC3(COC3)C2)cc2nc(C(C)(C)C)c(CC3CCC(F)(F)CC3)n12` [Compound 137, 2-tert-Butyl-3-[(4,4-difluorocyclohexyl)methyl]-5-methyl-N-(2-oxaspiro[3.3]heptan-6-yl)imidazo[1,2-a]pyridine-7-carboxamide], no more than 0.1 µM.

Turning to `CCOC(=O)CNC(=O)c1cc(C#N)n2c(CC3CCC(F)(F)CC3)c(C(F)(F)F)nc2c1` [Compound 139, Ethyl 2-{5-cyano-3-[(4,4-difluorocyclohexyl)methyl]-2-(trifluoromethyl)imidazo[1,2-a]pyridine-7-carboxamide}acetate], the half-inhibitory concentration (IC50) was no more than 0.1 µM. On the same count and under the same terms, for `N#Cc1cc(C(=O)NC2CCOC2=O)cc2nc(C(F)(F)F)c(CC3CCC(F)(F)CC3)n12` (stereo not drawn) [Compound 140, 5-Cyano-3-[(4,4-difluorocyclohexyl)methyl]-N-(2-oxotetrahydrofuran-3-yl)-2-(trifluoromethyl)imidazo[1,2-a]pyridine-7-carboxamide] the value was no more than 0.1 µM; for `COC1(CNC(=O)c2cc(C#N)n3c(CC4CCC(F)(F)CC4)c(C(F)(F)F)nc3c2)CCOCC1` [Compound 141, 5-Cyano-3-[(4,4-difluorocyclohexyl)methyl]-N-[(4-methoxytetrahydro-2H-pyran-4-yl)methyl]-2-(trifluoromethyl)imidazo[1,2-a]pyridine-7-carboxamide], no more than 0.1 µM; for `O=C(NNC(=O)C1CC1)c1cc(Cl)n2c(CC3CCC(F)(F)CC3)c(C(F)(F)F)nc2c1` [Compound 142, 5-Chloro-N′-(cyclopropanecarbonyl)-3-[(4,4-difluorocyclohexyl)methyl]-2-(trifluoromethyl)imidazo[1,2-a]pyridine-7-carbohydrazide], no more than 0.1 µM.

For the compound `O=C(CC1CCOCC1)NNC(=O)c1cc(Cl)n2c(CC3CCC(F)(F)CC3)c(C(F)(F)F)nc2c1` [Compound 143, 5-Chloro-3-[(4,4-difluorocyclohexyl)methyl]-N′-[2-(tetrahydro-2H-pyran-4-yl)acetyl]-2-(trifluoromethyl)imidazo[1,2-a]pyridine-7-carbohydrazide], the concentration for half-maximal inhibition (IC50) is no more than 0.1 µM. The same measure, in the same setting: for `CCCCc1c(C(C)C)nc2cc(C(=O)Nc3ccccc3)ccn12` [Compound 144, 3-Butyl-2-isopropyl-N-phenylimidazo[1,2-a]pyridine-7-carboxamide] the value was no more than 0.1 µM. Still for that read-out and setting: for `Cc1cc(C(=O)NC2CC3(COC3)C2)cc2nc(C(C)C)c(CC3CCC(F)(F)CC3)n12` [Compound 145, 3-[(4,4-Difluorocyclohexyl)methyl]-2-isopropyl-5-methyl-N-(2-oxaspiro[3.3]heptan-6-yl)imidazo[1,2-a]pyridine-7-carboxamide] the value was no more than 0.1 µM; for `CC(F)(F)c1nc2cc(C(=O)NC3CC4(COC4)C3)c(Cl)cn2c1CC1CCC(F)(F)CC1` [Compound 147, 6-Chloro-3-[(4,4-difluorocyclohexyl)methyl]-2-(1,1-difluoroethyl)-N-(2-oxaspiro[3.3]heptan-6-yl)imidazo[1,2-a]pyridine-7-carboxamide], no more than 0.1 µM.

The experiment is the same for the next values; noted with them: human Cav3.2-expressing KJMGER8 cells (Namalwa-derived); calcium response induced by 5 mmol/L CaCl2; 3 μmol/L mibefradil as reference; read-out: IC50 for the human Cav3.2 T-type Ca2+ current.
As for `Cc1cc(C(=O)NC2CCC3(CC2)COC3)cc2nc(C(F)(F)F)c(CC3CCC(F)(F)CC3)n12` [Compound 126, 3-[(4,4-Difluorocyclohexyl)methyl]-5-methyl-N-(2-oxaspiro[3.5]nonan-7-yl)-2-(trifluoromethyl)imidazo[1,2-a]pyridine-7-carboxamide], the IC50 is no more than 0.1 µM.

Take `Cc1cc(NC(=O)c2cc(C#N)n3c(CC4CCC(F)(F)CC4)c(C(F)(F)F)nc3c2)on1` [Compound 138, 5-Cyano-3-[(4,4-difluorocyclohexyl)methyl]-N-(3-methylisoxazol-5-yl)-2-(trifluoromethyl)imidazo[1,2-a]pyridine-7-carboxamide]: the 50% inhibitory concentration (IC50) is no more than 0.1 µM. On the same count and under the same terms, for `N#Cc1cc(C(=O)NC2CC3(COC3)C2)cc2nc(C(F)(F)F)c(CC3CCC(F)(F)CC3)n12` [Compound 146, 5-Cyano-3-[(4,4-difluorocyclohexyl)methyl]-N-(2-oxaspiro[3.3]heptan-6-yl)-2-(trifluoromethyl)imidazo[1,2-a]pyridine-7-carboxamide] the value was no more than 0.1 µM.
